From patent publication US8119380B2, “Methods and materials for making and using transgenic dicamba-degrading organisms” (Board of Regents of University of Nebraska, priority 1997, dated 2012)
“And” between values parts separate entries of the source, which are not always exact repeats. Identical values can stand only once.

Experiments:
plants = settings: cited from earlier work
dicamba O-demethylase [1] = assay type: biochemical; settings: mixture of three partially purified components, 30 minutes at 30° C.; 0.5 mM NADH, 0.5 mM NADPH, 10 mM MgCl2, 0.5 mM FeSO4, 0.2 mM FAD, 0.2 mM FMN
Experimental: (§1) Enzyme assays. […] At specific times, the reactions were stopped by adding 50 μl of 5% (vol/vol) H2SO4.
(§2) The solvent system for running the TLC was chloroform-ethanol-acetic acid (85:10:5 [vol/vol/vol]). The resolved reaction products were visualized and quantified by exposing the TLC plate to a phosphor screen for 24 hours and then scanning the screen in a PhosphorImager SF (Molecular Dynamics, Sunnyvale, Calif.). […] Specific activities were based on the total protein concentration of the assay mixture.
(§3) When a single component was assayed, the other two components were provided in excess.
(§4) Component and cofactor requirements. […] Samples were applied to a Q-Sepharose (Fast Flow) fast protein liquid chromatography column (Pharmacia) in buffer A and eluted with a 100-ml linear gradient of 0 to 0.6 M KCl (for the oxygenase component) or 0 to 1.0 M KCl (for the ferredoxin and reductase components) in 1.5-ml fractions. Appropriate pooled fractions from separate columns for oxygenase purification (fractions 29 to 37), for ferredoxin purification (fractions 30 to 37), or for reductase purification (fractions 26 to 38) were used for the determination of component and cofactor requirements.
(§5) The three components were assayed for O-demethylase activity in various combinations to determine component requirements.
(§6) The amounts of partially purified protein (provided in an optimized ratio) in the reaction mixtures were 85 μg of oxygenase, 55 μg of ferredoxin and 50 μg of reductase. The concentration of cofactors used in the reaction mixtures were 0.5 mM NADH, 0.2 mM FAD, 0.5 mM FeSO4, 10 mM MgCl2, 0.5 mM NADPH, and 0.2 mM FMN.

dicamba O-demethylase [2] = molecular target: dicamba O-demethylase (Stenotrophomonas maltophilia, UniProt Q5S3I3); settings: cleared cell lysate, less than 1 ppm oxygen, 30° C., within 1 hour
Experimental: Oxygen requirement. […] The procedures for displacement of oxygen from the reaction mixture were performed at 4° C. Reaction mixtures lacking enzyme were placed in a vial and sealed with a rubber stopper. For displacement of oxygen, the vial was evacuated twice by vacuum and flushed each time with nitrogen. After a third evacuation, the vial was flushed with 90% nitrogen plus 10% hydrogen. The enzyme solution was likewise purged of oxygen (with care taken not to bubble the enzyme solution). Both the reaction mixtures and enzyme solutions were transferred into an anaerobic chamber (95% N2-5% H2 atmosphere). Two hundred forty microliters of cleared cell lysate was injected through the rubber stopper with a microsyringe and gently mixed with 960 μl of oxygen-free reaction mixture. Reactions were carried out at 30° C.
COc1c(Cl)ccc(Cl)c1C(=O)O = experiment: cells, lysate or membranes named; settings: other: partially purified O-demethylase (40%-70% ammonium sulfate fraction), pH 7.0, 30° C., Michaelis-Menten/Lineweaver-Burk fit, duplicate experiments
dicamba O-demethylase [3] = molecular target: T1, dicamba O-demethylase (Stenotrophomonas maltophilia, UniProt Q5S3I3); assay type: biochemical; settings: mixed with excess amounts of components I and III; 55 μg partially purified component II or 100 μg highly purified Clostridium ferredoxin
T1 construct: partially purified O-demethylase enzyme [the 40%-70% (w/v) (NH4)2SO4 fraction from a cleared cell lysate]; endogenous in cells; host or cells: Pseudomonas maltophilia strain DI-6 (cleared cell lysate, ammonium sulfate cut, or Phenyl-/Q-Sepharose fractions)
T1 sequence (Q5S3I3 2-339): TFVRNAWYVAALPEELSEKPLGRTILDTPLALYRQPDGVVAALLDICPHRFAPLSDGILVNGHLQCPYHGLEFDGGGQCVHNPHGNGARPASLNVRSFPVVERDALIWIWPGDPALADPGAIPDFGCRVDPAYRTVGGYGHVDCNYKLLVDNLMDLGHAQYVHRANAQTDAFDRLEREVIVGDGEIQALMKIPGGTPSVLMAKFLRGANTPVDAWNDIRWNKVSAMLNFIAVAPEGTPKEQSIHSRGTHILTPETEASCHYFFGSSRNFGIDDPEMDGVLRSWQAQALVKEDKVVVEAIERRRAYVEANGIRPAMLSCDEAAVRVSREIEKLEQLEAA
Experimental: as §1, §2, §3, §4, §5, §6

[4] = Reductase assays (reduction of cytochrome c or DCIP in the presence of NADH); assay type: biochemical
Experimental: The reaction contained 0.5 mM NADH, 0.2 mM FAD (flavin adenine dinucleotide), 50 μM DCIP, 20 mM Tris buffer (pH 8.0), and 10-100 μl of enzyme sample in a total volume of 1 ml. The change in absorbance at 600 nm with time was measured at room temperature. Specific activity was calculated using an extinction coefficient at 600 nm of 21.0 mM^−1cm^−1 for reduced DCIP. Specific activity was expressed as nmol DCIP reduced min^−1 mg^−1 of protein.
In addition, an in situ DCIP assay was used to detect and locate the reductase activity in protein preparations separated on isoelectric focusing (IEF) gels. After electrophoresis of the proteins on an IEF gel, lanes sliced from the gel were washed with 20 ml of cold 20 mM Tris-HCl buffer (pH 8.0). Low melting agarose was dissolved by heating in 10 ml of 20 mM Tris-HCl buffer (pH 8.0) at a final concentration of 1.5% (w/v). When the agarose cooled to near room temperature, it was supplemented with 0.2 mM FAD, 50 μM DCIP, and 0.5 mM NADH. The assay mixture was poured onto a glass plate and allowed to solidify. The gel piece was placed on top of the solidified reaction mixture and allowed to set at room temperature for 15 minutes. If the gel slice contained a protein with reductase activity, a colorless band of reduced DCIP was generated in the blue background of DCIP.

O=C(O)c1c(Cl)ccc(Cl)c1O [3,6-DCSA, 3,6-dichlorosalicylic acid]
herbicidal activity (plants): no herbicidal activity

Cc1cc2nc3c(=O)[nH]c(=O)nc-3n(C[C@H](O)[C@H](O)[C@H](O)COP(=O)(O)OP(=O)(O)OC[C@H]3O[C@@H](n4cnc5c(N)ncnc54)[C@H](O)[C@@H]3O)c2cc1C [FAD, flavin adenine dinucleotide]
cofactor effect on dicamba O-demethylase activity (dicamba O-demethylase [1]): little or no stimulation

Cc1cc2nc3c(=O)[nH]c(=O)nc-3n(C[C@H](O)[C@H](O)[C@H](O)COP(=O)(O)O)c2cc1C [FMN, flavin mononucleotide]
cofactor effect on dicamba O-demethylase activity (dicamba O-demethylase [1]): little or no stimulation

NC(=O)C1=CN([C@@H]2O[C@H](COP(=O)(O)OP(=O)(O)OC[C@H]3O[C@@H](n4cnc5c(N)ncnc54)[C@H](O)[C@@H]3O)[C@@H](O)[C@H]2O)C=CC1 [NADH, beta-nicotinamide adenine dinucleotide, reduced form]
cofactor effect on dicamba O-demethylase activity (dicamba O-demethylase [1]): markedly more effective than NADPH

NC(=O)C1=CN([C@@H]2O[C@H](COP(=O)(O)OP(=O)(O)OC[C@H]3O[C@@H](n4cnc5c(N)ncnc54)[C@H](OP(=O)(O)O)[C@@H]3O)[C@@H](O)[C@H]2O)C=CC1 [NADPH]
cofactor effect on dicamba O-demethylase activity (dicamba O-demethylase [1]): supported enzyme activity

COc1c(Cl)ccc(Cl)c1C(=O)O [dicamba, 3,6-dichloro-2-methoxybenzoic acid]
conversion of dicamba to 3,6-DCSA under anaerobic conditions (dicamba O-demethylase [2]): virtually no conversion

dicamba O-demethylase (Stenotrophomonas maltophilia)
Km (COc1c(Cl)ccc(Cl)c1C(=O)O): 9.9 ± 3.9 µM and 10 µM

ferredoxin from Clostridium: highly purified ferredoxin from Clostridium pasteurianum (AYKIADSCVSCGACASECPVNAISQGDSIFVIDADTCIDCGNCANVCPVGAPVQE; UniProt P00195 2-56, looked up)
rate of conversion of dicamba to 3,6-DCSA (ferredoxin component) (dicamba O-demethylase [3]): 0.6 nmol/min/mg

B1: component I: oxygenase component of dicamba O-demethylase (protein)
chain: MTFVRNAWYVAALPEELSEKPLGRTILDTPLALYRQPDGVVAALLDICPHRFAPLSDGILVNGHLQCPYHGLEFDGGGQCVHNPHGNGARPASLNVRSFPVVERDALIWIWPGDPALADPGAIPDFGCRVDPAYRTVGGYGHVDCNYKLLVDNLMDLGHAQYVHRANAQTDAFDRLEREVIVGDGEIQALMKIPGGTPSVLMAKFLRGANTPVDAWNDIRWNKVSAMLNFIAVAPEGTPKEQSIHSRGTHILTPETEASCHYFFGSSRNFGIDDPEMDGVLRSWQAQALVKEDKVVVEAIERRRAYVEANGIRPAMLSCDEAAVRVSREIEKLEQLEAA
modifications: Pseudomonas maltophilia DI-6
notes: oxygenase component of dicamba O-demethylase
reductase activity with cytochrome c or DCPIP in the presence of NADH [4]: Neither component I nor component II showed activity
